# pIC50: −log10 of the molar value.
# How the values were obtained:
# [1] = target: JAK2 (recombinant purified GST-tagged catalytic domain) (Homo sapiens (Human), UniProt O60674); assay: Jak Biochemical HTRF Assay (JAK2); conditions: [ATP] 8.5 μM
# [2] = target: JAK1 (recombinant purified GST-tagged catalytic domain) (Homo sapiens (Human), UniProt P23458); assay: Jak Biochemical HTRF Assay (JAK1); conditions: [ATP] 31.8 μM
# Outline: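 Kinase reaction with biotinylated peptide substrate was started by ATP addition and run 120 min at room temperature, then quenched with EDTA stop buffer containing streptavidin-Dylight 650 and Eu-pY20 antibody. HTRF read 60 min later (665/615 nm ratio); percent inhibition vs log concentration fit to 4-parameter curve for IC50.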
# JAK2 (recombinant purified GST-tagged catalytic domain), sequence (O60674 849-1124): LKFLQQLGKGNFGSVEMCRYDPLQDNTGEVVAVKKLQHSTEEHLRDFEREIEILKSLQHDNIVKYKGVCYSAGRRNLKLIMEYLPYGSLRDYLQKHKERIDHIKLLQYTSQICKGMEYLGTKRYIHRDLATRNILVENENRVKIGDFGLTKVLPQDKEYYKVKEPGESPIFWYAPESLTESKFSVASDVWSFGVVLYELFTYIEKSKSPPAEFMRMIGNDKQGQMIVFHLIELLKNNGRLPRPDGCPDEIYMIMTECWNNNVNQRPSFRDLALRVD
# JAK1 (recombinant purified GST-tagged catalytic domain), sequence (P23458 875-1153): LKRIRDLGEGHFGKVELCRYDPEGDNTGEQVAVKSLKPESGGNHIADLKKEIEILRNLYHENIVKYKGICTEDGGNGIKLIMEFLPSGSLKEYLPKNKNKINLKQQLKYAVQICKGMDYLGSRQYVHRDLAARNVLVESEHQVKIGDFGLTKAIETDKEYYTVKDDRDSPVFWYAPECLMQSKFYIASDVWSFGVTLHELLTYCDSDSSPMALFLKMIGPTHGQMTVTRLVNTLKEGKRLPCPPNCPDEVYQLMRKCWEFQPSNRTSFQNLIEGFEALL
SMILES,pIC50 [1],pIC50 [2]
"Cc1cc(Nc2nn([C@]3(CC#N)CC[C@@H](C(=O)OC(C)(C)C)OC3)c3cc[nH]c(=O)c23)ccc1C(=O)N1C[C@@H]2C[C@H]1CO2 [Example 20-16, (2S,5S)-tert-butyl 5-(3-((4-((1S,4S)-2-oxa-5-azabicyclo[2.2.1]heptane-5-carbonyl)-3-methylphenyl)amino)-4-oxo-4,5-dihydro-1H-pyrazolo[4,3-c]pyridin-1-yl)-5-(cyanomethyl)tetrahydro-2H-pyran-2-carboxylate]",9.82,10.00
"Cc1nc2ccc(Nc3nn([C@]4(CC#N)CC[C@@H](C(=O)OC(C)(C)C)OC4)c4cc[nH]c(=O)c34)cc2s1 [Example 21-1, (2S,5S)-tert-butyl 5-(cyanomethyl)-5-(3-((2-methylbenzo[d]thiazol-6-yl)amino)-4-oxo-4,5-dihydro-1H-pyrazolo[4,3-c]pyridin-1-yl)tetrahydro-2H-pyran-2-carboxylate]",9.14,10.10
"CC1(C)C(=O)Nc2cc(Nc3nn([C@@]4(CC#N)CCCC[C@H]4F)c4cc[nH]c(=O)c34)ccc21 [Example 21-2, [(1R,2R)-1-{3-[(3,3-dimethyl-2-oxo-2,3-dihydro-1H-indol-6-yl)amino]-4-oxo-4,5-dihydro-1H-pyrazolo[4,3-c]pyridin-1-yl}-2-fluorocyclohexyl]acetonitrile]",10.40,10.40
"CC1(C)C(=O)Nc2cc(Nc3nn([C@]4(CC#N)CCCOC4)c4cc[nH]c(=O)c34)ccc21 [Example 21-4, [(3S)-3-{3-[(3,3-dimethyl-2-oxo-2,3-dihydro-1H-indol-6-yl)amino]-4-oxo-4,5-dihydro-1H-pyrazolo[4,3-c]pyridin-1-yl}tetrahydro-2H-pyran-3-yl]acetonitrile]",9.72,10.05
"CC(C)(C)OC(=O)[C@@H]1CC[C@@](CC#N)(n2nc(Nc3ccnc(F)c3)c3c(=O)[nH]ccc32)CO1 [Example 21-6, (2S,5S)-tert-butyl 5-(cyanomethyl)-5-(3-((2-fluoropyridin-4-yl)amino)-4-oxo-4,5-dihydro-1H-pyrazolo[4,3-c]pyridin-1-yl)tetrahydro-2H-pyran-2-carboxylate]",8.65,9.92
"Cc1cc(Nc2nn(C3(CC#N)CCN(C(=O)OC(C)(C)C)CC3)c3cc[nH]c(=O)c23)ccc1C(=O)N1CCC(F)(F)CC1 [Example 21-11, tert-butyl 4-(cyanomethyl)-4-(3-((4-(4,4-difluoropiperidine-1-carbonyl)-3-methylphenyl)amino)-4-oxo-4,5-dihydro-1H-pyrazolo[4,3-c]pyridin-1-yl)piperidine-1-carboxylate]",9.42,9.37
"Cc1cc(Nc2nn(C3(CC#N)CCN(C(=O)OC(C)(C)C)CC3)c3cc[nH]c(=O)c23)ccc1C(=O)N1CC2CCC(C1)O2 [Example 21-12, tert-butyl-4-(3-((4-(8-oxa-3-azabicyclo[3.2.1]octane-3-carbonyl)-3-methylphenyl)amino)-4-oxo-4,5-dihydro-1H-pyrazolo[4,3-c]pyridin-1-yl)-4-(cyanomethyl)piperidine-1-carboxylate]",9.74,9.59
"Cc1cc(Nc2nn(C3(CC#N)CCN(C(=O)OC(C)(C)C)CC3)c3cc[nH]c(=O)c23)ccc1C(=O)N1C2CCC1COC2 [Example 21-13, tert-butyl 4-(cyanomethyl)-4-{3-[(5-methyl-4-{3-oxa-8-azabicyclo[3.2.1]octan-8-ylcarbonyl}cyclohexa-1,3,5-trien-1-yl)amino]-4-oxo-5H-pyrazolo[4,3-c]pyridin-1-yl}piperidine-1-carboxylate]",9.70,9.57
"Cc1cc(Nc2nn(C3(CC#N)CCN(C(=O)OC(C)(C)C)CC3)c3cc[nH]c(=O)c23)ccc1C(=O)N1CCSCC1 [Example 21-14, tert-butyl-4-(cyanomethyl)-4-(3-(3-methyl-4-(thiomorpholine-4-carbonyl)phenylamino)-4-oxo-4,5-dihydropyrazolo[4,3-c]pyridin-1-yl)piperidine-1-carboxylate]",9.49,9.48
"CC(C)(C)OC(=O)N1CCC(CC#N)(n2nc(Nc3ccc4c(c3)CN(C3CCN(CC(F)(F)F)CC3)S4(=O)=O)c3c(=O)[nH]ccc32)CC1 [Example 21-15, tert-butyl-4-(cyanomethyl)-4-(3-((1,1-dioxido-2-(1-(2,2,2-trifluoroethyl)piperidin-4-yl)-2,3-dihydrobenzo[d]isothiazol-5-yl)amino)-4-oxo-4,5-dihydro-1H-pyrazolo[4,3-c]pyridin-1-yl)piperidine-1-carboxylate]",9.19,9.11
"Cc1cc(Nc2nn(C3(CC#N)CCN(C(=O)OC(C)(C)C)CC3)c3cc[nH]c(=O)c23)ccc1C(=O)N1CCOCC1 [Example 21-20, tert-butyl 4-(cyanomethyl)-4-(3-(3-methyl-4-(morpholine-4-carbonyl)phenylamino)-4-oxo-4,5-dihydropyrazolo[4,3-c]pyridin-1-yl)piperidine-1-carboxylate]",9.77,9.74
"CS(=O)(=O)NC(=O)[C@@H]1CC[C@@](CC#N)(n2nc(Nc3ccc(Cl)cc3)c3c(=O)[nH]ccc32)CO1 [Example 22, (2S,5S)-5-(3-((4-chlorophenyl)amino)-4-oxo-4,5-dihydro-1H-pyrazolo[4,3-c]pyridin-1-yl)-5-(cyanomethyl)-N-(methylsulfonyl)tetrahydro-2H-pyran-2-carboxamide]",7.63,8.42
"CN(C)C(=O)[C@@H]1CC[C@@](CC#N)(n2nc(Nc3ccc(Cl)cc3)c3c(=O)[nH]ccc32)CO1 [Example 23, (2S,5S)-5-(3-((4-chlorophenyl)amino)-4-oxo-4,5-dihydro-1H-pyrazolo[4,3-c]pyridin-1-yl)-5-(cyanomethyl)-N,N-dimethyltetrahydro-2H-pyran-2-carboxamide]",8.60,9.64
"CC(C)(O)[C@@H]1CC[C@@](CC#N)(n2nc(Nc3ccc(Cl)cc3)c3c(=O)[nH]ccc32)CO1 [Example 24, 2-((3S,6S)-3-(3-((4-chlorophenyl)amino)-4-oxo-4,5-dihydro-1H-pyrazolo[4,3-c]pyridin-1-yl)-6-(2-hydroxypropan-2-yl)tetrahydro-2H-pyran-3-yl)acetonitrile]",8.95,9.47

# From patent US9957264B2 (Merck Sharp & Dohme Corp., priority 2013, dated 2018)
